These results are taken from ChEMBL document CHEMBL4665688, “Discovery of AB680: A Potent and Selective Inhibitor of CD73” (J Med Chem, 2020).

By IC50 is commonly meant the concentration that gives 50% inhibition. The term clearance denotes the rate of elimination divided by the concentration. The fraction unbound is free concentration divided by total concentration. Usually half-life stands for how long it takes for the measured level to halve.

The target in data set [1] is T1, Ectonucleoside triphosphate diphosphohydrolase 8 (Homo sapiens, UniProt Q5MY95).
T1 sequence (Q5MY95 whole entry): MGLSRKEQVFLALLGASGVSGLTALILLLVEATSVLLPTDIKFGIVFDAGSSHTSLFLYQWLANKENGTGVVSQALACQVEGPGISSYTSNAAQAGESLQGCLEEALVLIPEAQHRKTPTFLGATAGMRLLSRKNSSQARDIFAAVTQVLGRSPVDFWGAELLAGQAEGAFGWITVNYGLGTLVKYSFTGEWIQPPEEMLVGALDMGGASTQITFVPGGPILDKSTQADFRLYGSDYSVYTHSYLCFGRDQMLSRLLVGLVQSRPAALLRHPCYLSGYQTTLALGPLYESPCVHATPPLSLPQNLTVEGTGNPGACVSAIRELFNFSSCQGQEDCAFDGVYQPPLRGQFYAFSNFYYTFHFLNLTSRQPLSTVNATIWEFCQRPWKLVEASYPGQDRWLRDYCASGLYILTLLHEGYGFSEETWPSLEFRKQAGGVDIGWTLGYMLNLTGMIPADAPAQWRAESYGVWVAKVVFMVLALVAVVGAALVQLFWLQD
Briefly: Inhibition of NTPDase 8 (unknown origin) expressed in CHO cells using ATP as substrate preincubated for 1 hr followed by substrate addition and measured after 50 mins by PiColorLock gold reagent based colorimetric assay. Type of data set: cell-based.

Data set [2] is described as follows: Clearance in Sprague-Dawley rat at 0.5 mg/kg, iv. It counts as ADME, organism-based. To be noted: in vivo.
A short description of data set [3]: Fraction unbound in mouse plasma. Set-up: dose or concentration left out as unconfirmed. Type of data set: ADME, cell-free.
Data set [4] can be described thus: Half life in Sprague-Dawley rat at 0.5 mg/kg, iv. Type of data set: ADME, organism-based. To be noted: in vivo.
A short description of data set [5]: Half life in mouse at 0.5 mg/kg, iv. It counts as ADME, organism-based. To be noted: in vivo.
In data set [6] the target is T2, Ectonucleoside triphosphate diphosphohydrolase 3 (Homo sapiens, UniProt O75355).
T2 sequence (O75355 whole entry): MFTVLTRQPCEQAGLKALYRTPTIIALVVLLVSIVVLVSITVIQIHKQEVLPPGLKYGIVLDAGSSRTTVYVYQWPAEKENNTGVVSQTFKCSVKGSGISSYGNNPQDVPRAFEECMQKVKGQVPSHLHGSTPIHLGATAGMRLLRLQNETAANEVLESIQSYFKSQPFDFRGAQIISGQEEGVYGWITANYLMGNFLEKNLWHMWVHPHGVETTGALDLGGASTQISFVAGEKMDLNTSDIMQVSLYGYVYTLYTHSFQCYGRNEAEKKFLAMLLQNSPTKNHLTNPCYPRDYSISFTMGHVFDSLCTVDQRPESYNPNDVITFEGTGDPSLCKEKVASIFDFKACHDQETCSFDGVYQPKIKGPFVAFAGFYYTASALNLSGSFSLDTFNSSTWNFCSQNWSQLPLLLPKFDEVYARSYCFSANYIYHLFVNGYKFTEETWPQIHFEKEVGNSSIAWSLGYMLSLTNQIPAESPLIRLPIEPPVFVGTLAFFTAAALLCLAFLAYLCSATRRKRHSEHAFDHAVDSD
Briefly: Inhibition of NTPDase 3 (unknown origin) expressed in CHO cells using ATP as substrate preincubated for 1 hr followed by substrate addition and measured after 50 mins by PiColorLock gold reagent based colorimetric assay. Type of data set: cell-based.

The target of data set [7] is T3, Ectonucleoside triphosphate diphosphohydrolase 2 (Homo sapiens, UniProt Q9Y5L3).
T3 sequence (Q9Y5L3 whole entry): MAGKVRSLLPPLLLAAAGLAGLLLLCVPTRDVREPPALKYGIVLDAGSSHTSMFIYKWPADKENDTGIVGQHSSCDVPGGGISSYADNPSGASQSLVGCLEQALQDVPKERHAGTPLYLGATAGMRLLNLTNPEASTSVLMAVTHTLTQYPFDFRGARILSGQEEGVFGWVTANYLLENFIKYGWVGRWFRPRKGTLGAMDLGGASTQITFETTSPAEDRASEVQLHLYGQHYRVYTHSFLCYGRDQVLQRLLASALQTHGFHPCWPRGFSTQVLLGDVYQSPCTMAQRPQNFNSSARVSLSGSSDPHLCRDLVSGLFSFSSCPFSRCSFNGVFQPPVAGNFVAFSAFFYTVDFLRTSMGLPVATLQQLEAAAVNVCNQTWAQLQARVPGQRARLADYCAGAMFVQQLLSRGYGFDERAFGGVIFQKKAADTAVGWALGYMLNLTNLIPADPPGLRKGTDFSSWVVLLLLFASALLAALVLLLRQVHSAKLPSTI
Briefly: Inhibition of NTPDase 2 (unknown origin) expressed in CHO cells using ATP as substrate preincubated for 1 hr followed by substrate addition and measured after 50 mins by PiColorLock gold reagent based colorimetric assay. Type of data set: cell-based.

Data set [8] can be described thus: Clearance in mouse at 0.5 mg/kg, iv. To be noted: in vivo. Type of data set: ADME, organism-based.
The nature of data set [9]: Fraction unbound in dog plasma. It counts as ADME, cell-free, Canis lupus familiaris.
Data set [10] can be described thus: Volume of distribution at steady state in mouse at 0.5 mg/kg, iv. It counts as ADME, organism-based. To be noted: in vivo, read-out: Vdss.
Data set [11] can be described thus: Volume of distribution at steady state in dog at 0.5 mg/kg, iv. Type of data set: ADME, organism-based, Canis lupus familiaris. To be noted: in vivo, read-out: Vdss.
Data set [12] in a line: Fraction unbound in Sprague-Dawley rat plasma. Type of data set: ADME, cell-free.
Data set [13] in a line: Half life in monkey at 0.5 mg/kg, iv. It counts as ADME, organism-based, Macaca mulatta. To be noted: rhesus monkey, in vivo.
A short description of data set [14]: Half life in dog at 0.5 mg/kg, iv. Type of data set: ADME, organism-based, Canis lupus familiaris. To be noted: in vivo.
Data set [15] in a line: Clearance in monkey at 0.5 mg/kg, iv. It counts as ADME, organism-based, Macaca mulatta. To be noted: rhesus monkey, in vivo.
The nature of data set [16]: Volume of distribution at steady state in monkey at 0.5 mg/kg, iv. Type of data set: ADME, organism-based, Macaca mulatta. To be noted: rhesus monkey, in vivo, read-out: Vdss.
Data set [17] is described as follows: Fraction unbound in monkey plasma. Type of data set: ADME, cell-free, Macaca mulatta. To be noted: rhesus monkey.
Data set [18] is described as follows: Clearance in dog at 0.5 mg/kg, iv. Type of data set: ADME, organism-based, Canis lupus familiaris. To be noted: in vivo.
The target of data set [19] is T4, 5'-nucleotidase (Mus musculus, UniProt Q61503).
T4 sequence (Q61503 whole entry): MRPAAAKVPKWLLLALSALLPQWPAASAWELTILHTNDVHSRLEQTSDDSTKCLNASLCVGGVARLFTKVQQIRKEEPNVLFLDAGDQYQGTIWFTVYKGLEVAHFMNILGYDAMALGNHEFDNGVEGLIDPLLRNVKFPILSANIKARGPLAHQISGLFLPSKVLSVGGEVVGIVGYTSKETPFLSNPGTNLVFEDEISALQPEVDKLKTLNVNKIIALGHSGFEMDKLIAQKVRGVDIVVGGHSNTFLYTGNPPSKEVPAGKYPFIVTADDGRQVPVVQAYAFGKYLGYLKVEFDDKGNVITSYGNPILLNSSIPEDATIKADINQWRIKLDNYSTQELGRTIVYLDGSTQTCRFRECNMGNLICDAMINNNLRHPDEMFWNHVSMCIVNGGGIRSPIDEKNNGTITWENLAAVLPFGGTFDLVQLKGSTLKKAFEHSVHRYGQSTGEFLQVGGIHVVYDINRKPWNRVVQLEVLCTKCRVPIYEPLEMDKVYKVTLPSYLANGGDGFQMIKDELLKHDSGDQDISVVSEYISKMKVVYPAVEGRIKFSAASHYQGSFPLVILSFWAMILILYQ
Briefly: Inhibition of CD73 in mouse CD8-positive T cells using AMP as substrate preincubated for 60 mins followed by substrate addition and measured after 2.5 hrs by PiColorLock gold reagent based colorimetric assay. It counts as cell-based, CD8-positive T cell.

Data set [20] can be described thus: Volume of distribution at steady state in Sprague-Dawley rat at 0.5 mg/kg, iv. Type of data set: ADME, organism-based. To be noted: in vivo, read-out: Vdss.

Where only a bound is given, the exact number is not on record here.

`C[C@H](Nc1cc(Cl)nc2c1cnn2[C@@H]1O[C@H](COP(=O)(O)CP(=O)(O)O)[C@@H](O)[C@H]1O)c1ccccc1F`: the IC50 was > 10 µM in data set [1], > 10 µM in data set [6], > 10 µM in [7] and 0.00066 µM in data set [19]. Moreover, the clearance in data set [2] was 0.333 mL/min/kg; in [8] it was 0.417 mL/min/kg; in data set [15], 0.0417 mL/min/kg; in data set [18], 0.833 mL/min/kg. Moreover, the fraction unbound in [3] amounted to 0.0089; in data set [9], 0.083; in [12], 0.0017; in data set [17], 0.0059. The half-life was 5.3 h in data set [4], 3.5 h in data set [5], 27 h in data set [13] and 22 h in data set [14]. Moreover, the Vd is 0.12 L/kg in data set [10], 1.3 L/kg in [11], 0.099 L/kg in data set [16] and 0.12 L/kg in [20].

`C[C@H](Nc1nc(Cl)nc2c1cnn2[C@@H]1O[C@H](COP(=O)(O)CP(=O)(O)O)[C@@H](O)[C@H]1O)c1ccccc1`: the concentration for half-maximal inhibition (IC50) in [1] is > 10 µM; in [6], > 10 µM; in data set [7] it was > 10 µM; in data set [19], 0.00016 µM. In addition, the clearance is 1.07 mL/min/kg in [2], 1.27 mL/min/kg in [8], 0.04 mL/min/kg in data set [15] and 1.18 mL/min/kg in [18]. Also, the unbound share (fraction unbound) in data set [3] was found to be 0.029; in data set [9], 0.187; in data set [12], 0.0095; in data set [17] it was 0.002. In addition, the half-life in [4] was 1.7 h; in [5], 2 h; in data set [13], 28 h; in data set [14], 13 h. The Vd in [10] is 0.18 L/kg; in data set [11] it was 0.84 L/kg; in data set [16], 0.096 L/kg; in data set [20] it was 0.12 L/kg.

As to `C[C@H](Nc1cc(Cl)nc2c1cnn2[C@@H]1O[C@H](COP(=O)(O)CP(=O)(O)O)[C@@H](O)[C@H]1O)c1ccc(F)cc1`, the 50% inhibitory concentration (IC50) was > 10 µM in [1], > 10 µM in [6], > 10 µM in [7] and 0.00083 µM in data set [19]. For the same compound, the clearance in data set [2] was 0.15 mL/min/kg; in data set [8] it was 0.25 mL/min/kg; in data set [15] it was 0.0283 mL/min/kg; in data set [18], 0.567 mL/min/kg. The fraction unbound stood at 0.0065 in data set [3], 0.102 in [9], 0.0016 in data set [12] and 0.0034 in data set [17]. The half-life in data set [4] is 9.6 h; in data set [5] it was 6.5 h; in data set [13] it was 34 h; in data set [14], 15 h. The Vd in [10] came out at 0.11 L/kg; in [11], 0.63 L/kg; in [16], 0.078 L/kg; in data set [20] it was 0.12 L/kg.
